Target: T1, PR65 (Homo sapiens, UniProt P30153)
T1 construct: gene PPP2R1A; WT PR65 alone (scaffold, 15 HEAT repeats, no B or C subunit), expressed in E. coli C41 as GST fusion, GST tag cleaved with thrombin; also a variant with ybbR tags at N- and C-termini used for optical tweezers
Assay: nanoDSF thermal shift
Format: binding
Settings: melting temperature with ligand, not a shift (apo 52.7 ± 0.1 °C); 2 μM PR65, 100 μM ligand, PBS, 2 mM DTT, 10% DMSO

T1 sequence (P30153 2-589): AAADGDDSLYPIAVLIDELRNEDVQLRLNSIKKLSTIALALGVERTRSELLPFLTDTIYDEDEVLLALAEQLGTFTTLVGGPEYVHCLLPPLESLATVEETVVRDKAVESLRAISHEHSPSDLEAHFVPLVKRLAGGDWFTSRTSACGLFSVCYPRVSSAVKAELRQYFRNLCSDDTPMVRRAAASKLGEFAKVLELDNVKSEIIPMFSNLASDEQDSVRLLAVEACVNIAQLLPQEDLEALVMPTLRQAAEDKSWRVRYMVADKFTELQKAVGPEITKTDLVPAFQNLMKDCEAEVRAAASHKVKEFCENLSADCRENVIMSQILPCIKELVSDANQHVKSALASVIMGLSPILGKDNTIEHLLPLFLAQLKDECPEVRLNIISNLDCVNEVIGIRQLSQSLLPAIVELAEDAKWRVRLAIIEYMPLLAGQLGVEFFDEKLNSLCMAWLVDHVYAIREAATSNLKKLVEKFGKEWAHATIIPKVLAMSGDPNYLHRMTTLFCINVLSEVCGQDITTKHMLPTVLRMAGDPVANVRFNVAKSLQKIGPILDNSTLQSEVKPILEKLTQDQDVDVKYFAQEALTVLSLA

- T m: 53.5 ± 0.1 °C
Substance: DBK-766

Reference: publication PMC13213488, “Small Molecule Activators of Protein Phosphatase 2A Exert Global Stabilizing Effects on the Scaffold PR65” (JACS Au, 2026)
